Laboratory results taken from US5530141A, “2,4-diaryl-1,3-dithiolanes; 2,4-diaryl-1,3-dioxolanes; 2,4-diaryl-1,3-oxathiolanes; and 2,5-diaryl-1,3-oxathiolanes for the treatment of disorders mediated by platelet activating factor or products of 5-lipoxygenase” (Center for Innovative Technology, priority 1992, dated 1996).
Blank lines part the entries; values can stand above or below the compound they belong to.

Assays:
5-LO = target: T1, 5-LO (Rattus norvegicus, UniProt P12527); assay: 5-LO inhibition (Table 1); assay type: biochemical; settings: for inhibition at 3 µM: read-out: 5-LO, percent @ 3 μM
T1 sequence (P12527 1-673): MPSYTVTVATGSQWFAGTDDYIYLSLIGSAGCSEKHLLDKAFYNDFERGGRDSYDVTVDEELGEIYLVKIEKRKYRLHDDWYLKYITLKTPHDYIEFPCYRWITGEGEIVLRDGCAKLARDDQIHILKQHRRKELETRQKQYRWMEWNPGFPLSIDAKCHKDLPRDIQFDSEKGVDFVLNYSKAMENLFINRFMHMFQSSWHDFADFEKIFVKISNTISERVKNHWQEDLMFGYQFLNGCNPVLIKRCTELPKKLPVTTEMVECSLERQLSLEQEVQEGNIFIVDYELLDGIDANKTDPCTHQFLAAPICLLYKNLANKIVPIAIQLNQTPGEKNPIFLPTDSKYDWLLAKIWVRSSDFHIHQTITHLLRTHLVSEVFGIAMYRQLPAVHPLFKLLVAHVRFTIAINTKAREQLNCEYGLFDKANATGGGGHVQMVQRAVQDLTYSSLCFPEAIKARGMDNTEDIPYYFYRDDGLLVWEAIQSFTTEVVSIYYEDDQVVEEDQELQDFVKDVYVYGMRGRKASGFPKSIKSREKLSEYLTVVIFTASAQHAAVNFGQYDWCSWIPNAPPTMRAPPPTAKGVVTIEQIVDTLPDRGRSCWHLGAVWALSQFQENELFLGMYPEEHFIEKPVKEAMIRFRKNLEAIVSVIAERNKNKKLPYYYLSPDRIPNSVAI

[1] = target: T2, specific receptors on human platelet membranes (PAF receptors) (Homo sapiens, UniProt P25105); assay: [3H]PAF binding inhibition on human platelet membranes (Table 1, PAF); settings: [3H]PAF 0.3 nM, pH 7.0, 4 h, 0° C
T2 construct: Human platelet membranes were prepared from platelet concentrates obtained from the American Red Cross Blood Services; from tissue; host or cells: human platelets (concentrates from American Red Cross Blood Services, Dedham, Mass.), membrane fractions A and B
Procedure: Human platelet membranes were prepared from platelet concentrates obtained from the American Red Cross Blood Services (Dedham, Mass.). After several washes with platelet wash solution (150 mM NaCl, 10 mM Tris, and 2 mM EDTA, pH 7.5), the platelet pellets were resuspended in 5 mM MgCl2, 10 mM Tris, and 2 mM EDTA at pH 7.0. The cells were then quickly frozen with liquid nitrogen and thawed slowly at room temperature. The freezing and thawing procedure was repeated at least three times. For further fractionation of membrane fragments, the lysed membrane suspension was layered over the top of a discontinous sucrose density gradient of 0.25, 1.03, and 1.5M sucrose prepared in 10 mM MgCl2, 10 mM Tris and 2 mM EDTA, pH 7.0, and centrifuged at 63,500×g for 2 hr. The membrane fractions banding between 0.25 and 1.03M (membrane A) and between 1.03 and 1.5M (membrane B) were collected separately. The protein concentration of the membrane preparations was determined by Lowry's method with bovine serum albumin (BSA) as the standard. The membranes were then separated into smaller fractions (4 ml each) and stored at -80° C. and thawed before use.
b) [^3 H]PAF Binding inhibition:
The ability of [^3 H]PAF to bind to specific receptors on human platelet membranes was evaluated at optimal conditions at pH 7.0 and in the presence of 10 mM MgCl2. Membrane protein (100 ug) was added to a final 0.5 ml solution containing 0.15 pmol (0.3 nM concentration) of [^3 H]PAF and a known amount of unlabeled PAF or PAF receptor antagonist in 10 mM MgCl2, 10 mM Tris and 0.25% BSA at pH 7.0. After incubation for four hours at 0° C., the bound and unbound [^3 H]PAF were then separated through a Whatman GF/C glass fiber filter under vacuum. No degradation of filter bound [^3 H]PAF has been detected under this assay condition. The nonspecific binding was defined as the total binding in the presence of excess unlabeled PAF (1 mM) where no further displacement was found with higher concentrations of either unlabeled PAF or PAF analogs or PAF receptor antagonists. The specific binding was defined as the difference between total binding and nonspecific binding.
To determine the relative potency of tested compounds, [^3 H]PAF binding in the presence of inhibitors was normalized in terms of percent inhibition by assigning the total binding in the absence of inhibitors as 0% inhibition and the total binding in the presence of 1 mM unlabeled PAF as 100%. The percent inhibition by the compound can be calculated by the formula expressed below:
% inhibition=[(Total binding-total binding in the presence of
compound)/nonspecific binding]×100%
The IC50 was calculated as the concentration of the inhibitor necessary to obtain 50% inhibition of the specific [^3 H]PAF binding and was calculated by a nonlinear regression computer software program, GraphPad Inplot, version 3.0 (GraphPad software, San Diego, Calif.). Table 1 provides the IC50 values for a number of 2,4-diaryl-1,3-dithiolanes.

PAF receptor = settings: cited from earlier work
RBL 5-LO = target: T3, RBL 5-LO (Rattus norvegicus, UniProt P12527); assay: RBL 5-LO inhibition (Table 2); assay type: biochemical; settings: unit inferred
T3 construct: cytosol 5-lipoxygenase of rat basophilic leukemia cells (RBL); endogenous in cells; host or cells: rat basophilic leukemia (RBL) cells
T3 sequence (P12527 1-673): T1 sequence (P12527 1-673)
Excerpt: A wide variety of biological assays have also been used to evaluate the ability of a compound to inhibit the enzyme 5-lipoxygenase. For example, a cytosol 5-lipoxygenase of rat basophilic leukemia cells (RBL) has been widely utilized in studies on leukotriene biosynthesis. Compounds that inhibit 5-lipoxygenase decrease the levels of leukotrienes.

5-lipoxygenase = settings: cited from earlier work

T2 sequence (P25105 whole entry): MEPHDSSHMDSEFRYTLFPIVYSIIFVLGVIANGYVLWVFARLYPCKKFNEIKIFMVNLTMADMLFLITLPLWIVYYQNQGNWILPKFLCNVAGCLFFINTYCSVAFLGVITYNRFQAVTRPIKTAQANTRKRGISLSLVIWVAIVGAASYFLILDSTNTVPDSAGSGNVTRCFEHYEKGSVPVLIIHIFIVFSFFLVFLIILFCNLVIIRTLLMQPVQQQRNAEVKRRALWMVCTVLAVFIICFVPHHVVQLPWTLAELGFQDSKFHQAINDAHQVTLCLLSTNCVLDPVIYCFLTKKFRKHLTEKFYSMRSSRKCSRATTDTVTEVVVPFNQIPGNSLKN

IC50 (5-LO): 92 nM
SMILES: COc1cc([C@H]2SC[C@H](c3cc(OC)c(OC)c(OC)c3)S2)cc(NC(=O)N(C)O)c1OCCSc1ccc(C#N)cc1 (relative stereo) [compound 13, Trans-2-[5-(N-hydroxy-N-methylureidyl)-4-{2-(4'-cyano-phenylthio)ethoxy}-3-methoxyphenyl]-4-(3,4,5-trimethoxyphenyl)-1,3-dithiolane]

IC50 [1]: 543 nM | IC50 (5-LO): 570 nM
SMILES: C=CCOc1c(NC(=O)N(O)C(C)(C)C)cc([C@H]2SC[C@H](c3cc(OC)c(OC)c(OC)c3)S2)cc1OC (relative stereo) [compound 6, Trans-2-[4-allyloxy-3-methoxy-5-(N-t-butyl-N-hydroxyureidyl)phenyl]-4-(3,4,5-trimethoxyphenyl)-1,3-dithiolane]

IC50 (5-LO): 280 nM
SMILES: COc1cc([C@H]2SC[C@H](c3cc(OC)c(OC)c(OC)c3)S2)cc(NC(=S)N(C)O)c1OC (relative stereo) [compound 2]

IC50 [1]: 67.8 nM | IC50 (5-LO): 240 nM
SMILES: CCCCN(O)C(=O)Nc1cc(C2SCC(c3cc(OC)c(OC)c(OC)c3)S2)cc(OC)c1OC (stereo not drawn) [compound 3, Trans-2-[3,4-dimethoxy-5-(N-n-butyl-N-hydroxyureidyl)phenyl]-4-(3,4,5-trimethoxyphenyl)-1,3-dithiolane]

IC50 [1]: 259 nM | IC50 (5-LO): 220 nM
SMILES: COc1cc([C@H]2SC[C@H](c3cc(OC)c(OC)c(OC)c3)S2)cc(NC(=O)N(C)O)c1OC (relative stereo) [compound 1, Cis and Trans-2-[3,4-dimethoxy-5-(N-hydroxy-N-methylureidyl)phenyl]-4-(3,4,5-trimethoxyphenyl)-1,3-dithiolane]

IC50 (5-LO): 120 nM
SMILES: COc1cc([C@H]2SC[C@H](c3cc(OC)c(OC)c(OC)c3)S2)cc(NC(=O)N(C)O)c1OCCSc1ccc(O)cc1 (relative stereo) [compound 9, Trans-2-[5-(N-hydroxy-N-methylureidyl)-4-{2-(4'-hydroxy-phenylthio)ethoxy}-3-methoxyphenyl]-4-(3,4,5-trimethoxyphenyl)-1,3-dithiolane]

IC50 (RBL 5-LO): 1440 nM
SMILES: COc1cc(C2SCC(c3cc(OC)c(OC)c(OC)c3)S2)cc(CN(O)C(N)=O)c1OC (stereo not drawn)

IC50 (RBL 5-LO): 850 nM
SMILES: COc1cc(C2SCC(c3cc(OC)c(OC)c(OC)c3)S2)cc(CN(O)C(C)=O)c1OC (stereo not drawn)

IC50 [1]: 798 nM | IC50 (5-LO): 320 nM
SMILES: COc1cc([C@H]2SC[C@H](c3cc(OC)c(OC)c(OC)c3)S2)cc(NC(=O)N(O)C(C)(C)C)c1OC (relative stereo) [compound 4, Cis and Trans-2-[3,4-dimethoxy-5-(N-t-butyl-N-hydroxyureidyl)phenyl]-4-(3,4,5-trimethoxyphenyl)-1,3-dithiolane]

IC50 [1]: 561 nM | IC50 (5-LO): 170 nM
SMILES: C=CCOc1c(NC(=O)N(C)O)cc([C@H]2SC[C@H](c3cc(OC)c(OC)c(OC)c3)S2)cc1OC (relative stereo) [compound 5, Trans-2-[4-allyloxy-3-methoxy-5-(N-hydroxy-N-methylureidyl)phenyl]-4-(3,4,5-trimethoxyphenyl)-1,3-dithiolane]

The remaining lines, values behind:

SMILES: COc1cc([C@H]2SC[C@H](c3cc(OC)c(OC)c(OC)c3)S2)cc(NC(=O)N(O)c2ccc(Cl)cc2)c1OCCSc1ccc(O)cc1 (relative stereo) [compound 10, Trans-2-[5-(N-(p-chlorophenyl)-N-hydroxyureidyl)-4-{2-(4'-hydroxy-phenylthio)ethoxy}-3-methoxyphenyl]-4-(3,4,5-trimethoxyphenyl)-1,3-dithiolane]
inhibition at 3 µM (5-LO): 64%

SMILES: COc1cc([C@H]2CS[C@H](c3cc(OC)c(OCCSc4ccc(O)cc4)c([N+](=O)[O-])c3)S2)cc(OC)c1OC (relative stereo) [compound 7, Trans-2-[4-{2-(4'-hydroxyphenylthio)ethoxy}-3-methoxy-5-nitrophenyl]-4-(3,4,5-trimethoxyphenyl)-1,3-dithiolane]
inhibition at 3 µM (5-LO): 57%

SMILES: CCCOc1c(OC)cc([C@H]2CC[C@H](c3cc(OC)c(OC)c(OC)c3)O2)cc1S(C)(=O)=O (relative stereo) [L-659,989, trans-2-(3-methoxy-4-propoxyphenyl-5-methylsulfonyl)-5-(3,4,5-trimethoxyphenyl)tetrahydrofuran]
PAF receptor antagonist activity (PAF receptor): orally active, potent, competitive PAF receptor antagonist | equilibrium inhibition constant relative to trans-L-652,731 (PAF receptor; greater than that of trans-L-652,731): 10 times

SMILES: COc1cc([C@H]2SC[C@H](c3cc(OC)c(OC)c(OC)c3)S2)cc(N)c1OCCSc1ccc(O)cc1 (relative stereo) [compound 8, Trans-2-[5-amino-4-{2-(4'-hydroxyphenylthio)ethoxy}-3-methoxyphenyl]-4-(3,4,5-trimethoxyphenyl)-1,3-dithiolane]
inhibition at 3 µM (5-LO): 41%

SMILES: COc1cc([C@H]2CS[C@H](c3cc(OC)c(OCCSc4ccc(O)cc4)c(N(C)C)c3)S2)cc(OC)c1OC (relative stereo) [compound 14, Trans-2-[5-(N,N-dimethylamino)-4-{2-(4'-hydroxyphenylthio)ethoxy}-3-methoxyphenyl]-4-(3,4,5-trimethoxyphenyl)-1,3-dithiolane]
inhibition at 3 µM (5-LO): 25%

SMILES: CCCCCCCCCCCCCCCCCCNC(=O)OCC(COP(=O)([O-])OCC[n+]1ccsc1)OC (racemic) [CV-3988, rac-3-(N-n-octadecyl-carbamoyloxy-w-methoxypropyl-2-thiazolioethyl phosphate]
PAF receptor antagonist activity (PAF receptor): PAF receptor antagonist properties

SMILES: COc1cc([C@H]2CC[C@H](c3cc(OC)c(OC)c(OC)c3)S2)cc(OC)c1OC (relative stereo) [L-653,150, trans-2,5-bis-(3,4,5-trimethoxyphenyl)tetrahydrothiophene]
effect on the enzyme 5-lipoxygenase (5-lipoxygenase): moderate inhibitor of 5-lipoxygenase | PAF receptor antagonist activity (PAF receptor): potent PAF antagonist

SMILES: C=CCOc1c(NC(=O)N(O)C(C)(C)C)cc([C@H]2O[C@@H](c3cc(OC)c(OC)c(OC)c3)CS2)cc1OC (relative stereo)
IC50 (RBL 5-LO): 250 nM

SMILES: C=CCC1=C[C@@]2(OC)C(=CC1=O)O[C@H](c1ccc(OC)c(OC)c1)[C@H]2C [kadsurenone]
PAF receptor antagonist activity (PAF receptor): potent, specific and competitive inhibitor of PAF activity at the receptor level

SMILES: C=CCOc1c(NC(=O)N(O)C(C)(C)C)cc([C@@H]2O[C@@H](c3cc(OC)c(OC)c(OC)c3)CS2)cc1OC (relative stereo)
IC50 (RBL 5-LO): 410 nM
